Measured values taken from US11413278B2, “Compounds and methods for promoting stress resistance” (priority 2015, dated 2022).
Where two headings read alike, the source gives them in different places.

Tests used:
C. elegans = C. elegans lifespan assays (liquid and plate); format: in vivo, Caenorhabditis elegans; details: for ILS at 60 µM / ILS at 66 µM: Caenorhabditis elegans; for O = Life span- extending scores in worms: score scale 0 to 2, 4 to 6 independent trials; for M = Lifespan-extending scores in worms: summary score; for ILS at 66 µM / Lifespan assay in liquid / Lifespan assay on plates: at 66 uM; for Extension of C. elegans' lifespan (qualitative): in at least 3 to 4 trials, group range ~10% to ~50%
FOXO3 = FOXO3 siRNA knockdown: dependency for H2O2-resistance; format: cell-based, human
WI-38 cells [1] = test system: WI-38 cells
Procedure: WI-38 cells were seeded on 384-well plates for 24 hrs and then incubated with small molecules for 24 hrs. […] Images were collected on an INCell Analyzer 2000 (GE) and analyzed with the Developer software.

WI-38 cells [2] = test: CdCl2 (cadmium) resistance assay; format: cell-based, human; details: for fold induction at 10 µM: Homo sapiens, 12 h; for Assay 4: H2O2- & Cd-resistant / Assay 2: Cadmium-resistant: YES/NO; for Assay 2: Cadmium-resistant: * indicates partial
Method in brief: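 Resistance to CdCl2 or MMS stress (12 h exposure) was scored in WI-38 fibroblasts pretreated with compound at 0.25–20 μM final, five doses, technical triplicates. MMS plates had compound added 24 h before MMS, after a shift to serum-free DMEM+2% BSA. Significance came from a global variance t-test over two independent runs.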

[3] = 60 μM, in liquid, wild type, with FuDR, 1.0 × 10^9 bacteria/ml, read-out: relative change of mean lifespan vs control, Trial 1
[4] = 60 μM, in liquid, wild type, with FuDR, 2.5 × 10^9 bacteria/ml, read-out: relative change of mean lifespan vs control, Trial 2
[5] = 60 μM, on plate, CF512 temperature-sensitive sterile animals, without FuDR, 2.0 × 10^10 bacteria/ml, read-out: relative change of mean lifespan vs control, Trial 3
[6] = Assay 2(z), 1.0 × 10^9 bacteria/ml, wild type + FuDR (2012 July), read-out: Lifespan assay in liquid
[7] = Assay 3(aa), 2.5 × 10^9 bacteria/ml, wild type + FuDR, read-out: Lifespan assay in liquid
[8] = Assay 4(ab), 2.0 × 10^10 bacteria/ml, CF512 worms, no FuDR, read-out: Lifespan assay on plates
[9] = no H2O2 stress, 10 uM, negative control 0.41% ± 0.23%
[10] = Exp. 1, WI-38 cells, 10 uM, normalized ATP measurement, read-out: Exp. 1, under Cd2Cl2 stress treatment, at 10 uM (fold change)
[11] = Exp. 2, WI-38 cells, 10 uM, normalized ATP measurement, read-out: Exp. 2, under Cd2Cl2 stress treatment, at 10 uM (fold change)
[12] = WI-38 cells, 10 μM, both stressors
[13] = score in summary of 38 core set hits

Row | SMILES | ILS at 60 µM (C. elegans; [3]) [%] | ILS at 60 µM (C. elegans; [4]) [%] | ILS at 60 µM (C. elegans; [5]) [%] | ILS at 66 µM (C. elegans; [6]) [%] | ILS at 66 µM (C. elegans; [7]) [%] | ILS at 66 µM (C. elegans; [8]) [%] | O = Life span- extending scores in worms (C. elegans) | M = Lifespan-extending scores in worms (C. elegans) | I = FOXO3-dependency for H2O2-resistance (FOXO3; score) | I = FOXO3-dependency for H2O2-resistance (FOXO3; summary score) | Percentage of propidium iodide-positive dead cells (no H2O2 stress treatment), at 10 uM (WI-38 cells [1]; [9]) | CdCl2-resistant (WI-38 cells [2]) | H2O2- & CdCl2-resistant (WI-38 cells [2]) | fold induction at 10 µM (WI-38 cells [2]; [10]) | fold induction at 10 µM (WI-38 cells [2]; [11]) | CdCl2-resistant (WI-38 cells [2]; WI-38 cells, 10 μM) | Assay 2: Cadmium-resistant (WI-38 cells [2]) | A = Cadmium resistant (WI-38 cells [2]; [13]) | A = Cadmium resistant (WI-38 cells [2]; summary score) | C = H2O2- & Cd-resistant (WI-38 cells [2]; summary score) | further results
1 | O=C(Nc1nc(C23CC4CC(CC(C4)C2)C3)cs1)C(c1ccccc1)c1ccccc1 [O10] | 5.9 | -6.2 | 9.5 | 5.9 | -6.2 | 9.5 | 0 | 0 | 0 | 0 | 0.54% ± 0.16%, | YES | YES | 2.73 | 2 | YES | YES | 1 | 1 | 1 | H2O2- & CdCl2-resistant (WI-38 cells [2]; [12]): YES; Assay 4: H2O2- & Cd-resistant (WI-38 cells [2]): YES
2 | COc1cc2c(no[n+]2[O-])n2nnnc12 [O11] |  |  |  |  |  |  | 1 (1 for lifespan extension observed in 2 trials) | 1 (1 for lifespan extension observed in 2 trials) | 0 | 0 |  | YES | YES |  |  | YES | YES | 1 | 1 | 1 | relative change of mean lifespan vs control, Trial 1 (C. elegans; 60 μM, in liquid, wild type, with FuDR, 1.0 × 10^9 bacteria/ml): +14.9%; relative change of mean lifespan vs control, Trial 2 (C. elegans; 60 μM, in liquid, wild type, with FuDR, 2.5 × 10^9 bacteria/ml): +6.0%; relative change of mean lifespan vs control, Trial 4 (C. elegans; 60 μM, on plate, CF512 temperature-sensitive sterile animals, without FuDR, 1.0 × 10^11 bacteria/ml): +9.0%; relative change of mean lifespan vs control, Trial 3 (C. elegans; 60 μM, on plate, CF512 temperature-sensitive sterile animals, without FuDR, 2.0 × 10^10 bacteria/ml): +21.0%; Lifespan assay in liquid (C. elegans; Assay 2(z), 1.0 × 10^9 bacteria/ml, wild type + FuDR (2012 July)): +14.9%; Lifespan assay in liquid (C. elegans; Assay 3(aa), 2.5 × 10^9 bacteria/ml, wild type + FuDR): +6.0%; Lifespan assay on plates (C. elegans; Assay 4(ab), 2.0 × 10^10 bacteria/ml, CF512 worms, no FuDR): +21.0%; Lifespan assay on plates (C. elegans; Assay 5(ac), 1.0 × 10^11 bacteria/ml, CF512 worms, no FuDR): +9.0%; PI cell-death imaging without H2O2 (indicating potential toxicity) (WI-38 cells [1]): YES; PI-positive dead cells under normal conditions (WI-38 cells [1]; human): 1.9%±0.7%; Percentage of propidium iodide-positive dead cells (no H2O2 stress treatment), at 10 uM (WI-38 cells [1]; human): 1.86% ± 0.71%,; Exp. 1, under CdCl2 stress treatment, at 10 uM (fold change) (WI-38 cells [2]; Exp. 1, WI-38 cells, 10 uM, normalized ATP measurement): 3.78 fold change; Exp. 2, under CdCl2 stress treatment, at 10 uM (fold change) (WI-38 cells [2]; Exp. 2, WI-38 cells, 10 uM, normalized ATP measurement): 2.80 fold change; H2O2- & CdCl2-resistant (WI-38 cells [2]; [12]): YES; Assay 4: H2O2- & Cd-resistant (WI-38 cells [2]): YES
3 | CCCC(=O)Nc1ccc(-c2cn3cccc(C)c3n2)cc1 [O12] | 36.8 | 9.6 | 6.6 | 36.8 | 9.6 | 6.6 | 2 (2 for observed in more than 2 trials) | 2 (2 for observed in more than 2 trials) | 0 | 0 | 0.45% ± 0.05%, | YES | YES | 1.36 | 1.59 | YES | NO * | 1 | 0 | 0 | Extension of C. elegans' lifespan (qualitative) (C. elegans): could extend animal's lifespan; H2O2- & CdCl2-resistant (WI-38 cells [2]; [12]): YES
4 | O=C(c1ccc([N+](=O)[O-])o1)N1CCc2ccccc21 [O13] | 32.7 | 10.3 | 27.3 | 32.7 | 10.3 | 27.3 | 2 (2 for observed in more than 2 trials) | 2 (2 for observed in more than 2 trials) | 0 | 0 | 0.69% ± 0.12%, |  |  | 1.27 | 1.55 |  | YES | 0 | 1 | 1 | relative change of mean lifespan vs control, Trial 6 (confirmative) (C. elegans; 60 μM, on plate, temperature-sensitive sterile animals, without FuDR, 1.0 × 10^11 bacteria/ml): +15.3%; relative change of mean lifespan vs control, Trial 5 (confirmative) (C. elegans; 60 μM, on plate, temperature-sensitive sterile animals, without FuDR, 2.0 × 10^10 bacteria/ml): +8.4%; Lifespan, average increase (C. elegans; 4 or more trials): 18.2%; ILS at 60 µM (C. elegans; 60 μM, on plate, CF512 temperature-sensitive sterile animals, without FuDR, 1.0 × 10^11 bacteria/ml, read-out: relative change of mean lifespan vs control, Trial 4): 15%; ILS at 66 µM (C. elegans; Assay 5(ac), 1.0 × 10^11 bacteria/ml, CF512 worms, no FuDR, read-out: Lifespan assay on plates): 15%; ILS at 66 µM (C. elegans; Assay 6(ad), 2.0 × 10^10 bacteria/ml, CF512 worms, no FuDR, read-out: Lifespan assay on plates): 8.4%; ILS at 66 µM (C. elegans; Assay 7(ae), 1.0 × 10^11 bacteria/ml, CF512 worms, no FuDR, read-out: Lifespan assay on plates): 15.3%; Extension of C. elegans' lifespan (qualitative) (C. elegans): could extend animal's lifespan; Lifespan, mean (FIG. 6B) (C. elegans; temperature-sensitive sterile rollers, on plate, without FuDR, 25° C. then ~22° C., control 18.4±0.4): 23.4±0.4; Lifespan increase (FIG. 6A) (C. elegans; wild-type, in liquid, with FuDR, 20° C., ~60 μM): ~33.2%; Lifespan, mean±SD (FIG. 6A) (C. elegans; wild-type, in liquid, with FuDR, 20° C., ~60 μM, control 21.1±0.5): 28.1±1.1; Assay 4: H2O2- & Cd-resistant (WI-38 cells [2]): YES
